Target: T1, hGPR65 (Homo sapiens, UniProt Q8IYL9)
T1 construct: expressed in transfected cells; host or cells: HeLa (ATCC CCL-2), lentiviral transduction, pLX317
Experiment: cAMP detection (Lance Ultra), GPR65 KO HeLa reconstituted with hGPR65; 21K screen dose confirmation
Type: cell-based
Conditions: HeLa GPR65 KO + hGPR65, pH 7.1, 30 min, normalized to DMSO and 100 μM forskolin; read-out: WT EC50
Protocol: The Lance Ultra cAMP Kit (PerkinElmer, TRF0264) was used for cAMP detection, and included the following reagents: ULight anti-cAMP antibody, Eu-cAMP tracer, 7.5% BSA Stabilizer solution, and cAMP detection buffer. Stimulation buffer was prepared as described by the kit manufacturer as follows: Hanks buffered saline solution (HBSS, Life Technologies, 14025-126) containing 0.5 mM IBMX (3-isobutyl-1-methylxanthine, Sigma-Aldrich, I7018) and buffered with 1 M Hepes (15630-080). Stimulation buffer was then adjusted to pH 7.1 using 12 N HCl. HeLa cells were lifted using Versene and then suspended at 2.5 × 10^5 cells/ml in stimulation buffer. Cells were then plated at 20 μl per well (5000 cells per well) in white, opaque OptiPlate 384-well MicroPlates (PerkinElmer, 6007299) using a Thermo Fisher Scientific Combi liquid dispenser. Compounds, stored at 5 mM in DMSO for the primary screen, or in a range of concentrations from 39 μM to 20 mM for dose curves, were transferred by the CyBio CyBi-Well Vario pin transfer tool with 100-nl pins (V&P FP1NS50H, 50-nl slot, 0.457-mm diameter, hydrophobic coated), into each assay well, 100 nl per well for a final assay concentration of 25 μM for the primary screen, or 195 nM to 100 μM for dose curves. Assay plates were then incubated at RT for 30 min. Eu-cAMP tracer was diluted 1:33 into detection buffer and the final solution then distributed into assay wells, 5 μl per well. ULight anti-cAMP antibody was diluted 1:100 into detection buffer, then distributed into assay wells, also 5 μl per well. Assay plates were then incubated at RT in the dark for 1 hour. Eu-cAMP tracer and Förster resonance energy transfer (FRET) emissions were then read using a PerkinElmer EnVision Multimode plate reader (ENVISION21040010), exciting each well at 320 nm [UV2 (TRF) 320 filter] and reading emissions at 615 nm (Europium 615 filter) and 665 nm (APC665 filter). Data analysis was performed using Genedata Screener and GraphPad Prism.
HeLa KO cell lines were generated using the px330 plasmid CRISPR system as previously described ([18]). Briefly, HeLa cells were transfected with a Cas9 vector containing a gene-specific single-guide RNA to target the GPR65 coding exon. Forty-eight to 72 hours after transfection, single clones were obtained through limiting dilution and then sequenced to validate the KO. Reconstituted cell lines were produced by transducing KO cells with empty lentivirus or lentivirus containing hGPR65 or mGPR65. After 48 hours, cells were treated with puromycin (3 μg/ml; InvivoGen, ant-pr-1) and resistant cells were used in experiments.

T1 sequence (Q8IYL9 whole entry): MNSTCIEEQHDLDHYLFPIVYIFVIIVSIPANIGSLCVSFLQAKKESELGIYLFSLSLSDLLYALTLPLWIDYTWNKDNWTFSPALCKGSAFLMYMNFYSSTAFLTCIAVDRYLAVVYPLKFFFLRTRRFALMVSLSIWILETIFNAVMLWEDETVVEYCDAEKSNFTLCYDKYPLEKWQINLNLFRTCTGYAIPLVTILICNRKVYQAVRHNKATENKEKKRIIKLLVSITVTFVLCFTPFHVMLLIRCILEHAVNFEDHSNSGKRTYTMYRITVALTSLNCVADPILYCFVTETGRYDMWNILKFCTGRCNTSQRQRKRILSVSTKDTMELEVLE

SMILES: CN1N=C(SCc2ccc(Cl)cc2Cl)Sc2c1cnn(C)c2=O [BTB09089, reference compound]
- EC50: 6 µM

Source: publication PMC11259170, “Small-molecule probe for IBD risk variant GPR65 I231L alters cytokine signaling networks through positive allosteric modulation” (Science Advances, 2024)
